The record followed here is patent US9045488B2, “PAA nanoparticles for tumor treatment and imaging” (Photolitec, LLC, priority 2012, dated 2015).

“Also recorded” adds a separate entry of the source.

One assay relates to COLO-26 tumor. Briefly: In vivo fluorescence imaging, Maestro GNIR-Flex, mice with induced COLO-26 tumor. Also noted: species or system Balb/c mice. The following applies: 4-48 hours post i.v. 0.47 mmoles/kg; excitation 575-605 nm, emission 645 nm long pass. The source says: The images are color enhanced by computer assignment of color depth relative to fluorescent intensity. Exposure was 100 ms (fluorescence 0 and 8 ms 9 white light). […] The images are color enhanced by computer assignment of color depth relative to fluorescent intensity. […] The images are color enhanced by computer assignment of color depth relative to fluorescent intensity. […] The images are color enhanced by computer assignment of color depth relative to fluorescent intensity.

The subject of another assay is Colon 26 cancer cells. Briefly: MTT assay, percent survival of Colon 26 cancer cells with/without light treatment. The conditions noted are these: Colon 26 cells, 24 h incubation, no light or light 0.25-2 Joules; relative to the unconjugated compound. The format is cell-based. The text has this: FIG. 3 is a graph showing percent survival of Colon 26 cancer cells relative to concentration in the form of MTT Assay of compound PS815 vs. PS815 conjugated to PAA nanoparticle vs. PS815 both conjugated and post-loaded on PAA nanoparticle without light treatment.
FIG. 4 is a graph showing percent survival of Colon 26 cancer cells relative to concentration in the form of MTT Assay of compound PS815 vs. PS815 conjugated to PAA nanoparticle vs. PS815 both conjugated and post-loaded on PAA nanoparticles. Light treatment was done at 0.25 Joules following 24 h incubation in Colon 26 cells.
FIG. 5 is a graph showing percent survival of Colon 26 cancer cells relative to concentration in the form of MTT Assay of compound PS815 vs. PS815 conjugated to PAA nanoparticle vs. PS815 both conjugated and post-loaded on PAA nanoparticles. Light treatment was done at 0.5 Joules following 24 h incubation in Colon 26 cells.
FIG. 6 is a graph showing percent survival of Colon 26 cancer cells relative to concentration in the form of MTT Assay of compound PS815 vs. PS815 conjugated to PAA nanoparticle vs. PS815 both conjugated and post-loaded on PAA nanoparticles. Light treatment was done at one Joule following 24 h incubation in Colon 26 cells. […]
Background: Formazan colour is commonly taken as a measure of viable cells.

Take “20-carboxyphenyl-2-[1-hexyloxyethyl]-2-devinyl pyropheophorbide-a methyl ester [PS812]”: the “fluorescent image clarity and definition / fluorescence imaging” value in the assay with COLO-26 tumor is listed as “unexpectedly superior fluorescent imaging; also recorded: superiority of fluorescence imaging”. Besides, the “toxicity to the tumor cells (MTT assay, percent survival), effect of conjugation with nanoparticles” value with Colon 26 cancer cells is recorded as “unexpectedly increases toxicity to the cancer cells”.
